Test results published in patent US20090281129A1, “CDKI PATHWAY INHIBITORS AND USES THEREOF” (Senex Biotechnology, Inc., priority 2006, published 2009).
Entries after “also recorded” stand apart in the source; their conditions may differ.

How the values were obtained:
Type in all cases: cell-based
[1] = tested on: HT1080 p21-9 cells co-cultured with C8 mouse fibroblast line; test: Paracrine antiapoptotic activity of p21-expressing HT1080 p21-9 cells, survival of C8 cells in low-serum media; settings: p21 induction for three days in presence of compound; C8 survival after 3 days in 0.5% serum, luciferase assay
Excerpt: We have also tested if SNX2-class compounds can inhibit paracrine tumor-promoting activities of CDKI-expressing cells. In the assay shown in FIG. 12, HT1080 p21-9 cells were either untreated or treated with p21-inducing IPTG, alone or in the presence of three SNX2-class compounds (SNX2, SNX14 and SNX38). After three days, cells were trypsinized, washed to remove residual compounds, and 3×10^3 cell aliquots of each sample were mixed (in 6 replicates) with 10^4 cell aliquots of C8 mouse fibroblast line, which is highly susceptible to apoptosis in low-serum media. (To detect C8 cells in co-culture, we had transduced them with a vector expressing firefly luciferase.) The next day after plating the mixtures in 96-well plates (in 10% serum and in the absence of IPTG or compounds), cells were exposed to low-serum (0.5%) media, and the relative number of surviving C8 cells was measured after 3 days by the luciferase assay.

[2] = target: T1, NFκB (p50 or p65 subunits) (Homo sapiens, UniProt P19838+Q04206); test: TransAM NFκB p65 / p50 Chemi transcription factor assay (oligonucleotide binding); settings: for TNFα-induced NFκB activity: TNFα-treated cells; for basal NFκB activity: control cells
T1 construct: endogenous in cells
Excerpt: The left set of bars represents cells treated with carrier control, the middle set represents cells treated with SNX2, and the right set represents cells treated with a known inhibitor of NFκB binding (TPCK).
We also tested if these compounds could act as the inhibitors of NFκB, by measuring cellular levels of p50 or p65 subunits binding oligonucleotides containing NFκB consensus binding site, using ACTIVE MOTIF TransAM™ NFκB p65 Chemi and NFκB p50 Chemi Transcription Factor Assay Kits.

[3] = tested on: normal human WI-38 fibroblasts; test: Doxorubicin-induced senescent phenotype (SA-β-gal) in WI-38 fibroblasts; settings: senescence induced by 200 nM doxorubicin
Procedure: We have correlated the ability of SNX2-class compounds to inhibit the induction of CDKI-responsive genes with their effect on the senescent phenotype, induced in normal human WI-38 fibroblasts by treatment with 200 nM doxorubicin.

HT1080 p21-9 cells = test: FACS analysis of DNA content (cell cycle distribution) in HT1080 p21-9 cells; settings: 18 hrs; for increase in the G1 fraction relative to cells treated with IPTG alone: 20 μM compound added simultaneously with 50 μM IPTG; for decrease in the G2 fraction of IPTG-treated cells: 20 μM compound with 50 μM IPTG; for increase in the G1 fraction: 20 μM compound, in the absence of IPTG
Procedure: We have analyzed the effect of SNX2-class compounds on cell cycle distribution of p21-arrested HT1080 p21-9 cells. Upon p21 induction, these cells are known to arrest both in G1 and in G2 (Chang et al., Oncogene 19, 2165-2170), which is illustrated in FIG. 9 by a reduction in the S-phase but not in the G1 or G2 fractions of cells treated with 50 μM IPTG for 18 hrs, relative to IPTG-untreated cells (as determined by FACS analysis of DNA content in DAPI-stained cells). 20 μM concentrations of SNX2 or SNX14 produce a small increase in the G1 fraction in the absence of IPTG (4% increase with SNX2 and 5% increase with SNX14) (FIG. 9). However, when SNX2 and SNX14 were added simultaneously with IPTG, they produced a much greater increase in the G1 fraction relative to cells treated with IPTG alone (19% increase with SNX2 and 22% increase with SNX14) (FIG. 9).

HT1080 p27-2 cells = test: FACS cell cycle analysis in HT1080 p27-2 cells with IPTG-inducible p27; settings: 20 μM compound, 24-hour treatment
Procedure: IPTG induces dose-dependent increase in the G1 fraction with a corresponding decrease in S and G2/M. The doses of IPTG used in this experiment induce G1 arrest at levels that are lower than the maximal levels that are produced by 50-100 μM IPTG, where >80% of cells are in G1.

[4] = tested on: CDKI-responsive promoter of cellular NK4 gene; test: NK4-luciferase reporter in HT1080 p21-9 cells, prevention and reversal of p21-induced transcription; settings: for induction of NK4-luciferase by p21 (reversal): compound added after two days of IPTG treatment; for induction of NK4-luciferase by p21: compound added simultaneously with IPTG
Procedure: The compounds show pronounced dose-dependent inhibition of transcription by p21, but they have only a marginal effect on the promoter function when p21 is not induced. […] In this experiment, HT1080 p21-9 cells that express firefly luciferase from a CDKI-responsive promoter of cellular NK4 gene were cultured with IPTG for two days, which is sufficient for near-maximal induction of NK4.

T1 sequence (P19838 1-433 limits assumed): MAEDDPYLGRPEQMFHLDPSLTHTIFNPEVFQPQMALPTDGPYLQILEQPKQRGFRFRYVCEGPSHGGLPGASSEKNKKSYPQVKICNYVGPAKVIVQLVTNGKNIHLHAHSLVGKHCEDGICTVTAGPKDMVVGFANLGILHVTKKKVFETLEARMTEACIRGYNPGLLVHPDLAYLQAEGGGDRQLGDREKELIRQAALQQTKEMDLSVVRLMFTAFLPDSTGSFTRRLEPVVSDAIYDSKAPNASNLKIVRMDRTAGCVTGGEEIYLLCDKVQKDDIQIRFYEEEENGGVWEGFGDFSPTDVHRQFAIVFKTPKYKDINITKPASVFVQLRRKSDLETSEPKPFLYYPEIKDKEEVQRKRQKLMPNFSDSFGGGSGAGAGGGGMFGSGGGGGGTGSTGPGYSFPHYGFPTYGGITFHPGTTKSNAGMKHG
T1 sequence (Q04206 whole entry): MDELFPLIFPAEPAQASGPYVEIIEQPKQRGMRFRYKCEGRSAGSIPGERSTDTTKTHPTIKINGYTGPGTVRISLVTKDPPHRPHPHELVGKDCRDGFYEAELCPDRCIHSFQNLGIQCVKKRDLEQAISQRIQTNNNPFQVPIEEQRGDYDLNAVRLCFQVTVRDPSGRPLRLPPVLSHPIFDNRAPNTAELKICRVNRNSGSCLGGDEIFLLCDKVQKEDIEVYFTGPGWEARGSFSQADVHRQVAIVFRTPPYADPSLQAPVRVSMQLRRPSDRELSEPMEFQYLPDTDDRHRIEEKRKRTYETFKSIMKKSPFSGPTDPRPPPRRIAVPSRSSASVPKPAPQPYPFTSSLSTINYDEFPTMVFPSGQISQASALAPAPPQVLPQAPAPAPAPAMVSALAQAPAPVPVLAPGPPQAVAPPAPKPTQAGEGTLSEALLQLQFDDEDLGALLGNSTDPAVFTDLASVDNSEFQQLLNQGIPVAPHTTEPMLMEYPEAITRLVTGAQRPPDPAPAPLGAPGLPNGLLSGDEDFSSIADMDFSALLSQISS

Row | Structure (SMILES) | p21-induced increase of C8 cell survival (paracrine antiapoptotic activity) [1] | TNFα-induced NFκB activity [2] | basal NFκB activity [2] | binding of NFκB proteins p50 or p65 to double-stranded DNA oligonucleotide comprising NFκB binding site ([2]; control or TNFα-treated cells) | expression of senescence marker SA-β-gal [3] | morphological changes associated with cell senescence [3] | increase in the G1 fraction relative to cells treated with IPTG alone (HT1080 p21-9 cells) | decrease in the G2 fraction of IPTG-treated cells (HT1080 p21-9 cells) | increase in the G1 fraction (HT1080 p21-9 cells) | effect on sub-maximal G1 arrest induced by IPTG (p27) (HT1080 p27-2 cells) | induction of NK4-luciferase by p21 (reversal) [4] | induction of NK4-luciferase by p21 [4]
1 | CCCNc1ncnc2ccc(Br)cc12 [SNX2] | significantly diminished | no significant effect | no significant effect | does not inhibit | block this phenotype | diminish | 19% | 6% | 4% |  |  | 
2 | CC(C)Nc1ncnc2ccc(I)cc12 [SNX14] | significantly diminished; also recorded: strongest effect |  |  |  | block this phenotype | diminish | 22% | 7% | 5% | strongly augmented |  | 
3 | COCCCNc1ncnc2ccc(I)cc12 [SNX38] | significantly diminished |  |  |  |  |  |  |  |  |  | reverses; also recorded: strongly decreased | prevents; also recorded: strongly decreased
4 | Cc1c(Cl)cccc1NC(=O)CCN1CCN(Cc2ccccc2)CC1 [SNX63] |  |  |  |  |  |  |  |  |  |  | not two days later | inhibited transcription
5 | Cc1ccc(S(=O)(=O)N[C@@H](Cc2ccccc2)C(=O)CCl)cc1 [TPCK, reference compound] |  | completely blocks | completely blocks |  |  |  |  |  |  |  |  | 
